Assay results reported in patent publication US9242969B2, “Biaryl amide compounds as kinase inhibitors” (Novartis AG, priority 2013, dated 2016).

Biological target: C-Raf TR (Δ1-324 deletion mutant with activating mutations) (Homo sapiens (Human), UniProt P04049, Y340E/Y341E)
Format: biochemical
Conditions: truncated C-Raf (Δ1-324), ATP 3 uM, 10 nM biotinylated MEK1 kinase dead
Procedure: biotinylated Mek, Kinase dead approximately 10 nM
Pre-incubation time with compounds 30 minutes at room temperature
Reaction time 2 hours at room temperature
Plates were sealed and stored overnight in the dark at room temperature. Plates were counted in a Perkin Elmer Envision instrument.

Sequence of C-Raf TR (Δ1-324 deletion mutant with activating mutations) (P04049 325-648 Y340E/Y341E): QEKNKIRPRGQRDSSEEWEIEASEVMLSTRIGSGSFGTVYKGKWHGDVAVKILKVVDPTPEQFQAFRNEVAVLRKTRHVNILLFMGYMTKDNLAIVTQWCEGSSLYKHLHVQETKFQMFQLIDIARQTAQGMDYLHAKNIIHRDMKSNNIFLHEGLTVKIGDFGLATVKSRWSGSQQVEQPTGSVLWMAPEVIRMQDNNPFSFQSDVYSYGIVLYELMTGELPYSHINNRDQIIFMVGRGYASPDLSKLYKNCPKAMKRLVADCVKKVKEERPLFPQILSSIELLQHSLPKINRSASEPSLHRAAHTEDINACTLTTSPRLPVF

IC50 [nM] | Compound
0.803 | Cc1ccc(C(=O)Nc2cccc(C(F)(F)F)c2)cc1-c1nc(N2CCOCC2)cc(N2CCOCC2)n1 [Example 14, 3-(4,6-dimorpholinopyrimidin-2-yl)-4-methyl-N-(3-(trifluoromethyl)phenyl)benzamide]
0.27 | Cc1ccc(NC(=O)c2cccc(C(F)(F)F)c2)cc1-c1cn(C)c(=O)c(N2CCOCC2)n1 [Example 119, N-(4-methyl-3-(4-methyl-6-morpholino-5-oxo-4,5-dihydropyrazin-2-yl)phenyl)-3-(trifluoromethyl)benzamide]
0.508 | Cc1ccc(C(=O)Nc2cccc(C(F)(F)F)c2)cc1-c1ccnc(N2CCOCC2)c1 [Example 63, 4-Methyl-3-(2-morpholinopyridin-4-yl)-N-(3-(trifluoromethyl)phenyl)benzamide]
1.29 | Cc1ccc(NC(=O)c2cccc(C(F)(F)F)c2)cc1-c1csc(N2CCOCC2)n1 [Example 199, N-(4-methyl-3-(2-morpholinothiazol-4-yl)phenyl)-3-(trifluoromethyl)benzamide]
0.308 | Cc1ccc(NC(=O)c2cccc(C(F)(F)F)c2)cc1-c1cncc(N2CCOCC2)n1 [Example 118, N-(4-methyl-3-(6-morpholinopyrazin-2-yl)phenyl)-3-(trifluoromethyl)benzamide]
